Reference: EPA's CvTdb concentration-time database
Several values for one entry are separate records, joined by “and”; a condition that tells them apart may be missing. Identical values can stand only once.

System: rat
Assay: concentration in blood after dosing; negative times count back from the end of exposure
Conditions: inhalation

CCC(C)(C)O [tertiary amyl alcohol]
dosed: tert-amyl methyl ether, duration: 6 hr, male, F344 (Charles River)
Conditions | concentration in blood [ng/mL]
0.1349 h, 100 ppm | 3120
0.1606 h, 500 ppm | 18700
0.161 h, 100 ppm | 2610
0.1742 h, 500 ppm | 28700
0.1776 h, 100 ppm | 4090
0.1793 h, 100 ppm | 3740
0.2114 h, 500 ppm | 25900
0.3273 h, 2500 ppm | 96000
0.3463 h, 2500 ppm | 119000
0.3468 h, 100 ppm | 3320
0.3507 h, 100 ppm | 2500
0.3521 h, 500 ppm | 18700
0.3559 h, 2500 ppm | 101000
0.358 h, 500 ppm | 33000
0.3593 h, 500 ppm | 32300
0.3685 h, 100 ppm | 3740
0.369 h, 100 ppm | 3620
0.3717 h, 500 ppm | 25500
0.8785 h, 2500 ppm | 113000
0.8797 h, 2500 ppm | 110000
0.8894 h, 2500 ppm | 91700
0.8908 h, 2500 ppm | 89100
0.9009 h, 100 ppm | 1190
0.9009 h, 500 ppm | 15400
0.9138 h, 500 ppm | 25900
0.9151 h, 500 ppm | 25100
0.9198 h, 100 ppm | 2180
0.9217 h, 500 ppm | 21500
0.9218 h, 100 ppm | 1760
1.789 h, 2500 ppm | 96800
1.799 h, 2500 ppm | 76700
1.823 h, 100 ppm | 1290
1.824 h, 2500 ppm | 89300
2.017 h, 500 ppm | 16200
2.018 h, 500 ppm | 15400
2.026 h, 500 ppm | 11400
3.851 h, 500 ppm | 8400
3.852 h, 500 ppm | 7720
3.858 h, 500 ppm | 4810
3.985 h, 2500 ppm | 61200
3.989 h, 2500 ppm | 52300
3.99 h, 2500 ppm | 49700
3.991 h, 2500 ppm | 48600
9.831 h, 2500 ppm | 3190
9.837 h, 500 ppm | 123
17.91 h, 500 ppm | 185
36 s, 100 ppm | 4500

dosed: tert-amyl methyl ether, duration: 6 hr, male, F344 (Charles River), during exposure
Conditions | concentration in blood
-112 s, 100 ppm | 3220 ng/mL
-97 s, 100 ppm | 2350 ng/mL
-51 s, 500 ppm | 27000 ng/mL
-36 s, 100 ppm | 3730 ng/mL
-27 s, 500 ppm | 23300 ng/mL
-5.969 h, 2500 ppm | 2030 ng/mL
-5.968 h, 2500 ppm | 298 ng/mL
-5.931 h, 100 ppm | 373 ng/mL
-5.788 h, 100 ppm | 269 ng/mL
-5.779 h, 500 ppm | 1540 ng/mL
-5.777 h, 500 ppm | 432 ng/mL
-5.722 h, 2500 ppm | 4830 ng/mL
-5.695 h, 100 ppm | 530 ng/mL
-5.662 h, 2500 ppm | 10000 ng/mL
-5.661 h, 2500 ppm | 6980 ng/mL
-5.626 h, 100 ppm | 895 ng/mL
-5.601 h, 100 ppm | 790 ng/mL
-5.589 h, 500 ppm | 2720 ng/mL
-5.079 h, 2500 ppm | 24900 ng/mL
-5.077 h, 2500 ppm | 21200 ng/mL
-5.075 h, 2500 ppm | 17100 ng/mL
-5.019 h, 500 ppm | 5250 ng/mL
-5.017 h, 500 ppm | 4200 ng/mL
-5.015 h, 100 ppm | 1710 ng/mL
-5.013 h, 100 ppm | 1350 ng/mL
-5.012 h, 100 ppm | 1200 ng/mL
-5.011 h, 100 ppm | 882 ng/mL
-4.072 h, 100 ppm | 2490 ng/mL
-4.07 h, 100 ppm | 2010 ng/mL
-4.069 h, 100 ppm | 1890 ng/mL and 1860 ng/mL
-3.994 h, 2500 ppm | 30900 ng/mL
-3.993 h, 2500 ppm | 29600 ng/mL
-3.992 h, 2500 ppm | 28500 ng/mL
-3.908 h, 500 ppm | 8890 ng/mL
-3.906 h, 500 ppm | 7410 ng/mL
-2.076 h, 500 ppm | 19600 ng/mL
-2.075 h, 500 ppm | 19000 ng/mL
-2.065 h, 100 ppm | 3210 ng/mL
-2.062 h, 100 ppm | 2590 ng/mL
-2.061 h, 100 ppm | 2340 ng/mL
-2.046 h, 100 ppm | 4250 ng/mL
-2.018 h, 2500 ppm | 59800 ng/mL
-2.017 h, 2500 ppm | 58900 ng/mL
-2 h, 2500 ppm | 84600 ng/mL
-1.996 h, 2500 ppm | 78100 ng/mL
-0.2032 h, 2500 ppm | 99500 ng/mL
-0.1979 h, 2500 ppm | 89100 ng/mL
-0.1701 h, 2500 ppm | 95600 ng/mL
-0.031 h, 500 ppm | 18700 ng/mL

CCC(C)(C)OC [tertiary amyl methyl ether]
dosed: tert-amyl methyl ether, duration: 6 hr, male, F344 (Charles River)
Conditions | concentration in blood
0.2936 h, 2500 ppm | 40100 ng/mL
0.2946 h, 2500 ppm | 38200 ng/mL
0.2952 h, 2500 ppm | 37100 ng/mL
0.4294 h, 100 ppm | 828 ng/mL
0.4521 h, 100 ppm | 1040 ng/mL
0.454 h, 100 ppm | 626 ng/mL
0.4709 h, 500 ppm | 5800 ng/mL
0.4728 h, 500 ppm | 4750 ng/mL
0.4735 h, 500 ppm | 4380 ng/mL
0.8269 h, 2500 ppm | 31500 ng/mL
0.8277 h, 2500 ppm | 30000 ng/mL
0.8285 h, 2500 ppm | 28500 ng/mL
0.8324 h, 2500 ppm | 20900 ng/mL
0.9984 h, 100 ppm | 528 ng/mL
0.9987 h, 100 ppm | 470 ng/mL
0.9992 h, 100 ppm | 366 ng/mL
1.018 h, 500 ppm | 3640 ng/mL and 3270 ng/mL
1.021 h, 500 ppm | 1850 ng/mL
1.733 h, 100 ppm | 268 ng/mL
1.755 h, 100 ppm | 523 ng/mL
1.756 h, 100 ppm | 418 ng/mL
1.756 h, 500 ppm | 1480 ng/mL
1.757 h, 500 ppm | 741 ng/mL
1.926 h, 2500 ppm | 12000 ng/mL
1.927 h, 2500 ppm | 9450 ng/mL
1.928 h, 2500 ppm | 6650 ng/mL
3.92 h, 2500 ppm | 4450 ng/mL
3.921 h, 2500 ppm | 2070 ng/mL
3.993 h, 500 ppm | 370 ng/mL
9.964 h, 500 ppm | 61.7 ng/mL
17.98 h, 2500 ppm | 42 ng/mL
176 s, 100 ppm | 1240 ng/mL
260 s, 100 ppm | 1350 ng/mL
269 s, 100 ppm | 782 ng/mL
284 s, 500 ppm | 10600 ng/mL
292 s, 500 ppm | 9510 ng/mL
299 s, 500 ppm | 8400 ng/mL
309 s, 500 ppm | 6910 ng/mL

dosed: tert-amyl methyl ether, duration: 6 hr, male, F344 (Charles River), during exposure
Conditions | concentration in blood
-254 s, 2500 ppm | 82700 ng/mL
-248 s, 2500 ppm | 79200 ng/mL
-228 s, 500 ppm | 18600 ng/mL
-5.888 h, 2500 ppm | 24900 ng/mL
-5.887 h, 100 ppm | 1060 ng/mL
-5.887 h, 2500 ppm | 22400 ng/mL
-5.886 h, 2500 ppm | 20000 ng/mL
-5.884 h, 2500 ppm | 17200 ng/mL
-5.883 h, 2500 ppm | 14400 ng/mL
-5.878 h, 500 ppm | 2960 ng/mL
-5.864 h, 100 ppm | 1190 ng/mL
-5.863 h, 100 ppm | 1130 ng/mL
-5.858 h, 2500 ppm | 27500 ng/mL
-5.853 h, 500 ppm | 6980 ng/mL
-5.85 h, 500 ppm | 5560 ng/mL
-5.848 h, 500 ppm | 4010 ng/mL
-5.841 h, 100 ppm | 1460 ng/mL
-5.522 h, 2500 ppm | 37700 ng/mL
-5.521 h, 2500 ppm | 36200 ng/mL
-5.494 h, 2500 ppm | 44100 ng/mL
-5.492 h, 2500 ppm | 41100 ng/mL
-5.475 h, 500 ppm | 9570 ng/mL
-5.474 h, 500 ppm | 9200 ng/mL
-5.464 h, 100 ppm | 1660 ng/mL and 1610 ng/mL
-5.442 h, 100 ppm | 2030 ng/mL
-5.158 h, 2500 ppm | 56700 ng/mL
-5.157 h, 2500 ppm | 55100 ng/mL
-5.131 h, 2500 ppm | 64200 ng/mL
-5.129 h, 2500 ppm | 60300 ng/mL
-5.111 h, 100 ppm | 2080 ng/mL
-5.109 h, 100 ppm | 1560 ng/mL
-5.099 h, 500 ppm | 13500 ng/mL
-5.093 h, 500 ppm | 10600 ng/mL
-5.092 h, 100 ppm | 3060 ng/mL
-5.089 h, 100 ppm | 2490 ng/mL
-4.169 h, 100 ppm | 2960 ng/mL
-4.167 h, 100 ppm | 2490 ng/mL
-4.165 h, 100 ppm | 2180 ng/mL
-4.07 h, 100 ppm | 1980 ng/mL
-4.067 h, 2500 ppm | 51500 ng/mL
-4.046 h, 2500 ppm | 72000 ng/mL
-4.045 h, 2500 ppm | 69400 ng/mL
-4.044 h, 2500 ppm | 66600 ng/mL
-4.016 h, 500 ppm | 15000 ng/mL
-3.979 h, 500 ppm | 12000 ng/mL
-2.249 h, 2500 ppm | 85700 ng/mL
-2.248 h, 2500 ppm | 83400 ng/mL
-1.978 h, 500 ppm | 17800 ng/mL
-1.975 h, 500 ppm | 16400 ng/mL
-1.969 h, 100 ppm | 2860 ng/mL
-1.968 h, 100 ppm | 2600 ng/mL
-1.948 h, 100 ppm | 3320 ng/mL
-1.945 h, 100 ppm | 2760 ng/mL
-0.1231 h, 500 ppm | 16400 ng/mL
-0.1186 h, 500 ppm | 13900 ng/mL
-0.1052 h, 2500 ppm | 89600 ng/mL
-0.1033 h, 100 ppm | 3440 ng/mL
-0.1027 h, 100 ppm | 3320 ng/mL
-0.1027 h, 2500 ppm | 84600 ng/mL
-0.1008 h, 100 ppm | 2910 ng/mL

ClC=C(Cl)Cl [trichloroethylene]
dosed: trichloroethylene, duration: 4 hr
Conditions | concentration in blood [ng/mL]
-3.5 h, 600 ppm, female, F344, during exposure | 16800
-3.459 h, 600.4 ppm, female, F344, during exposure | 16200
-0.4732 h, 600.4 ppm, female, F344, during exposure | 29000
0.203 h, 50 ppm, male, Sprague Dawley | 936
0.2286 h, 50 ppm, male, Sprague Dawley | 807
0.2287 h, 50 ppm, male, Sprague Dawley | 1080
0.2341 h, 50 ppm, male, Sprague Dawley | 1130
0.2372 h, 600 ppm, female, F344 | 21800
0.2627 h, 600.4 ppm, female, F344 | 18800
0.4545 h, 50 ppm, male, Sprague Dawley | 1170
0.477 h, 50 ppm, male, Sprague Dawley | 624
0.4781 h, 50 ppm, male, Sprague Dawley | 461
0.4921 h, 50 ppm, male, Sprague Dawley | 758
0.4935 h, 600 ppm, female, F344 | 16100
0.5358 h, 600.4 ppm, female, F344 | 13400
0.9773 h, 600 ppm, female, F344 | 4980
0.9775 h, 50 ppm, male, Sprague Dawley | 548
0.9966 h, 50 ppm, male, Sprague Dawley | 412
1.025 h, 600.4 ppm, female, F344 | 8560
1.027 h, 50 ppm, male, Sprague Dawley | 319
1.739 h, 600 ppm, female, F344 | 2970
1.944 h, 50 ppm, male, Sprague Dawley | 181
1.987 h, 50 ppm, male, Sprague Dawley | 389
2.009 h, 50 ppm, male, Sprague Dawley | 301
2.054 h, 600.4 ppm, female, F344 | 3600
4.006 h, 50 ppm, male, Sprague Dawley | 217
4.049 h, 50 ppm, male, Sprague Dawley | 207
250 s, 600 ppm, female, F344 | 24700

dosed: trichloroethylene, 50 ppm, duration: 4 hr, male, Sprague Dawley, during exposure
Conditions | concentration in blood [ng/mL]
-313 s | 1440
-72 s | 1050
-67 s | 1720
-14 s | 2070
-3.578 h | 917
-3.528 h | 611
-3.504 h | 680
-3.419 h | 998
-3.27 h | 824
-3.051 h | 1330
-3.011 h | 745
-3.008 h | 1370
-2.984 h | 1290
-2.064 h | 1650
-2.027 h | 1110
-2.007 h | 1380
-1.985 h | 1950
-1.07 h | 1850
-1.031 h | 1920
-1.023 h | 1010
-1.012 h | 1700
